Patent US12162888B2, “Carboxamides as ubiquitin-specific protease inhibitors” (Valo Early Discovery, Inc., priority 2018, dated 2024)

molecular target: T1, USP28 (His-tagged USP28-FL-mammalian) (Homo sapiens, UniProt Q96RU2); test: Ubiquitin-Rhodamine 110 Assay for USP28 Activity, Example A-1(a); type: biochemical; conditions: Ubiquitin-Rhodamine 110 assay, read-out: USP28 A-1(a) IC50 range
T1 construct: Expression of USP28 (1-1077)-TEV-6*His (pTT5 vector) was carried out in Expi293f cells; made in house; host or cells: Expi293F cells (pTT5 vector)
T1 sequence (Q96RU2 1-1077): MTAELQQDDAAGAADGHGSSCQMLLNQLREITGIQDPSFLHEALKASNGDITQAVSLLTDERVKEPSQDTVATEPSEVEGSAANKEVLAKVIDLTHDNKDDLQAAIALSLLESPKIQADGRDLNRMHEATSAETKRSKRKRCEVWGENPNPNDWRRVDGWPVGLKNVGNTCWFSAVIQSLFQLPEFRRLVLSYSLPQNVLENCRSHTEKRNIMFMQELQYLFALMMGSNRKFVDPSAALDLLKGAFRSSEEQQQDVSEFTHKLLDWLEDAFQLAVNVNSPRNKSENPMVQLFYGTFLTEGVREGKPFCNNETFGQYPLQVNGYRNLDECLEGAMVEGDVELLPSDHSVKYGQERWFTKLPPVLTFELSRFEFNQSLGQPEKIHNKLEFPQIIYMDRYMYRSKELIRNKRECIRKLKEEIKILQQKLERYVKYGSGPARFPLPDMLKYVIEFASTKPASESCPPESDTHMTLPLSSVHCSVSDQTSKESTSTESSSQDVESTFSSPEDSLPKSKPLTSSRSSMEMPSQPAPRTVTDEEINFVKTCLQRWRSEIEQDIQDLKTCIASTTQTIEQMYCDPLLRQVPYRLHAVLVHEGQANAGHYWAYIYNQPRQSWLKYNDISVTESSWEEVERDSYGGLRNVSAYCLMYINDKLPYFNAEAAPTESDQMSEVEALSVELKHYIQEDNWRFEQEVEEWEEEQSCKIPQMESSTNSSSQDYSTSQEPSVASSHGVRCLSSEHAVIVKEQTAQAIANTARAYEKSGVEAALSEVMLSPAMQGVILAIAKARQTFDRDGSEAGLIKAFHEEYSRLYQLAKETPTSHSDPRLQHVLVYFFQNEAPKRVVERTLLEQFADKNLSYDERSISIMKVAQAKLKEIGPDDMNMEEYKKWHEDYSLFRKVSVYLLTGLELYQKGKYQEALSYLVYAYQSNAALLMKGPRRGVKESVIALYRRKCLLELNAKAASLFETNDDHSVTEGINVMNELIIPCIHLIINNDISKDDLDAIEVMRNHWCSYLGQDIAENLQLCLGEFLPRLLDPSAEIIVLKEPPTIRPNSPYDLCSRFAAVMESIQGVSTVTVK
Protocol: Example A-1(a): Biochemical Assay: Ubiquitin-Rhodamine 110 Assay for USP28 Activity
The assay was performed in a final volume of 9 μL in assay buffer containing 20 mM Tris-HCl (pH 8.0, (1M Tris-HCl, pH 8.0 solution; Corning 46-031-CM)), 3 mM BME (2-Mercaptoethanol; Sigma 63689-25ML-F), 0.03% BGG (0.22 μM filtered, Sigma, G7516-25G), and 0.01% Triton X-100 (Sigma, T9284-10L). Nanoliter quantities of 10-point, 3-fold serial dilution in DMSO was pre-dispensed into 1536 assay plates (Corning, #3724BC) for a final test concentration of 25 μM to 1.3 nM, top to lowest dose, respectively. Enzyme USP28, construct His-tagged USP28-FL-mammalian, (protein expression and purification procedure described below). Concentration and incubation times were optimized for the maximal signal-to-background while maintaining initial velocity conditions at a fixed substrate concentration. The final concentration of the enzyme in the assay was […]. Final substrate (Ub-Rh110; Ubiquitin-Rhodamine 110, UbiQ-126) concentration was 25 nM with [Ub-Rh110]<<Km. 3 μL of 2× enzyme was added to assay plates (pre-stamped with compound) preincubated with […] for 30 minutes and then 3 μL of 2× Ub-Rh110 was added to assay plates. Plates were incubated for 45 minutes at room temperature before addition of 3 μL of stop solution (final concentration of 10 mM citric acid (Sigma, 251275-500G)). Fluorescence was read on the Envision (Excitation at 485 nm and Emission at 535 nm; Perkin Elmer) or on the PheraSTAR (Excitation at 485 nm and Emission at 535 nm; BMG Labtech).
Procedure for the Protein expression and purification for construct His-tagged USP28-FL-mammalian
Expression of USP28 (1-1077)-TEV-6*His (pTT5 vector) was carried out in Expi293f cells (sequence derived from uniprot ID: Q96RU2-1). Cells were re-suspended in lysis buffer B 50 mM Bicine, pH 8.0, 20 mM NaCl, 5% glycerol, 0.1% CHAPS, 5 mM β-ME, 1 mM PMSF, 1 ug/ml Leupeptin, 1 ug/ml Pepstatin) and lysed by sonication. Insoluble material was removed by centrifugation and the supernatant was loaded onto a Ni-NTA column (GE Healthcare) equilibrated with Ni Buffer A (50 mM Bicine, pH 8.0, 20 mM NaCl, 5% glycerol, 0.1% CHAPS, 5 mM R-ME.) and washed with Ni Buffer A+20 mM imidazole until A280 reached baseline. The protein was eluted with Ni Buffer B (50 mM Bicine, pH 8.0, 20 mM NaCl, 5% glycerol, 0.1% CHAPS, 5 mM β-ME, 300 mM imidazole.). The protein was further purified using a Superdex™ 200 10/300 GL column (GE Healthcare) equilibrated with 50 mM Bicine, pH 8.0, 20 mM NaCl, 5% glycerol, 0.1% CHAPS, 5 mM β-ME. The protein was concentrated to 2.5 mg ml-1, flash-frozen in liquid N2 and stored at −80° C.
For assay formats Example A-1(a), A-1(b), and A-2, data were reported as percent inhibition compared with control wells based on the following equation: % inh=1−((FLU−AveLow)/(AveHigh−AveLow)) where FLU=measured Fluorescence, AveLow=average Fluorescence of no enzyme control (n=16), and AveHighh=average Fluorescence of DMSO control (n=16). IC50 values were determined by curve fitting of the standard 4 parameter logistic fitting algorithm included in the Activity Base software package: IDBS XE Designer Model 205. Data is fitted using the Levenburg Marquardt algorithm.

SMILES | IC50
CO[C@@H]1CN(c2ccc3c(c2F)OC[C@H](NC(=O)c2sc4nc(C)ccc4c2N)C3)C[C@H]1N [Example 91, 3-amino-N-[(3R)-7-[(3R,4R)-3-amino-4-methoxypyrrolidin-1-yl]-8-fluoro-3,4-dihydro-2H-1-benzopyran-3-yl]-6-methylthieno[2,3-b]pyridine-2-carboxamide] | 200 to 2000 nM
Cc1ccc2c(N)c(C(=O)N[C@H]3CCc4nc(N5CC6CC(C5)N6)ccc4C3)sc2n1 [Example 23-10, 3-amino-N-[(6S)-2-{3,6-diazabicyclo[3.1.1]heptan-3-yl}-5,6,7,8-tetrahydroquinolin-6-yl]-6-methylthieno[2,3-b]pyridine-2-carboxamide] | 50 to 200 nM

same assay, conditions: Ubiquitin-Rhodamine 110 biochemical assay, read-out: USP28 A-1(a) IC50 range

SMILES | IC50
Cc1ccc2c(N)c(C(=O)N[C@H]3CCc4nc(N5C[C@H](N)[C@@]6(C5)OCC[C@H]6C)ccc4C3)sc2n1 [Example 510, 3-amino-N-[(6S)-2-[(4R,5R,9S)-9-amino-4-methyl-1-oxa-7-azaspiro[4.4]nonan-7-yl]-5,6,7,8-tetrahydroquinolin-6-yl]-6-methylthieno[2,3-b]pyridine-2-carboxamide] | 50 to 200 nM
COC[C@@H](C)O[C@@H]1CN(c2ccc3c(n2)CC[C@H](NC(=O)c2sc4nc(C)ccc4c2N)C3)C[C@H]1N [Example 483, 3-amino-N-[(6S)-2-[(3R,4R)-3-amino-4-{[(2R)-1-methoxypropan-2-yl]oxy}pyrrolidin-1-yl]-5,6,7,8-tetrahydroquinolin-6-yl]-6-methylthieno[2,3-b]pyridine-2-carboxamide] | 50 to 200 nM
COC[C@@H]1CN(c2ccc3c(n2)CC[C@H](NC(=O)c2sc4cnccc4c2N)C3)C[C@@H]1N [Example 500, 3-amino-N-[(6S)-2-[(3R,4R)-3-amino-4-(methoxymethyl)pyrrolidin-1-yl]-5,6,7,8-tetrahydroquinolin-6-yl]thieno[2,3-c]pyridine-2-carboxamide] | > 2000 nM
Cc1ccc2c(N)c(C(=O)N[C@H]3CCc4nc(N5C[C@@H](N)CC(F)(F)C5)ccc4C3)sc2n1 [Example 518, 3-amino-N-[(6S)-2-[(5S)-5-amino-3,3-difluoropiperidin-1-yl]-5,6,7,8-tetrahydroquinolin-6-yl]-6-methylthieno[2,3-b]pyridine-2-carboxamide] | 1 to 50 nM
Cc1ccc2c(N)c(C(=O)N[C@H]3CCc4nc(N5C[C@H](COC(F)(F)F)[C@H](N)C5)ccc4C3)sc2n1 [Example 485, 3-amino-N-[(6S)-2-[(3S,4S)-3-amino-4-[(trifluoromethoxy)methyl]pyrrolidin-1-yl]-5,6,7,8-tetrahydroquinolin-6-yl]-6-methylthieno[2,3-b]pyridine-2-carboxamide] | 50 to 200 nM
Cc1ccc2c(N)c(C(=O)N[C@H]3CCc4nc(N5C[C@@H](N)[C@]6(C5)OCC[C@H]6C)ccc4C3)sc2n1 [Example 512, 3-amino-N-[(6S)-2-[(4R,5S,9R)-9-amino-4-methyl-1-oxa-7-azaspiro[4.4]nonan-7-yl]-5,6,7,8-tetrahydroquinolin-6-yl]-6-methylthieno[2,3-b]pyridine-2-carboxamide] | 50 to 200 nM
CN[C@H]1CN(c2ccc3c(n2)CC[C@H](NC(=O)c2sc4nc(C)cnc4c2N)C3)C[C@@H]1OC [Example 490, 7-amino-N-[(6S)-2-[(3S,4S)-3-methoxy-4-(methylamino)pyrrolidin-1-yl]-5,6,7,8-tetrahydroquinolin-6-yl]-3-methylthieno[2,3-b]pyrazine-6-carboxamide] | 50 to 200 nM

same assay, conditions: biochemical IC50 range, Ubiquitin-Rhodamine 110 assay, read-out: USP28 A-1(a)

SMILES | IC50
CO[C@H]1CN(c2cc(F)c3c(c2)OC[C@H](NC(=O)c2sc4nc(C)ncc4c2N)C3)C[C@@H]1N [Example 693, 5-amino-N-[(3R)-7-[(3S,4S)-3-amino-4-methoxypyrrolidin-1-yl]-5-fluoro-3,4-dihydro-2H-1-benzopyran-3-yl]-2-methylthieno[2,3-d]pyrimidine-6-carboxamide] | 200 to 2000 nM
CN[C@@H]1CN(c2ccc3c(c2)OC[C@H](NC(=O)c2sc4nc(C)ccc4c2N)C3)C[C@@H]1COC [Example 680, 3-amino-N-[(3R)-7-[(3S,4S)-3-(methoxymethyl)-4-(methylamino)pyrrolidin-1-yl]-3,4-dihydro-2H-1-benzopyran-3-yl]-6-methylthieno[2,3-b]pyridine-2-carboxamide] | 1 to 50 nM
Cc1ccc2c(N)c(C(=O)N[C@H]3COc4cc(OC[C@H]5CNCC5(F)F)ccc4C3)sc2n1 [Example 686, 3-amino-N-[(3R)-7-{[(3R)-4,4-difluoropyrrolidin-3-yl]methoxy}-3,4-dihydro-2H-1-benzopyran-3-yl]-6-methylthieno[2,3-b]pyridine-2-carboxamide] | 1 to 50 nM
Cc1ccc2c(N)c(C(=O)N[C@H]3COc4cc(N5CC6[C@H](C5)NCC6(F)F)ccc4C3)sc2n1 (stereo partly drawn) [Example 655, N-[(3R)-7-[(6aR)-3,3-difluorooctahydropyrrolo[3,4-b]pyrrol-5-yl]-3,4-dihydro-2H-1-benzopyran-3-yl]-3-amino-6-methylthieno[2,3-b]pyridine-2-carboxamide] | 1 to 50 nM
CN[C@@H]1CN(c2cc(F)c3c(c2)OC[C@H](NC(=O)c2sc4nc(C)ncc4c2N)C3)C[C@H]1COC [Example 695, 5-amino-N-[(3R)-5-fluoro-7-[(3R,4S)-3-(methoxymethyl)-4-(methylamino)pyrrolidin-1-yl]-3,4-dihydro-2H-1-benzopyran-3-yl]-2-methylthieno[2,3-d]pyrimidine-6-carboxamide] | 200 to 2000 nM
Cc1ccc2c(N)c(C(=O)N[C@H]3COc4cc(N5C[C@H](N)[C@@]6(C5)OCC[C@H]6C)ccc4C3)sc2n1 [Example 612-2, 3-amino-N-[(3R)-7-[(4R,5R,9S)-9-amino-4-methyl-1-oxa-7-azaspiro[4.4]nonan-7-yl]-3,4-dihydro-2H-1-benzopyran-3-yl]-6-methylthieno[2,3-b]pyridine-2-carboxamide] | 1 to 50 nM
